Tests used:
[1] = Reaction rate with glyoxal (fluorometric kinetics); settings: 37° C., means±SE, n=3
Method: (A) The reactions between MitoG (100 μM) and 1,2-dicarbonyls (25 μM) at 37° C. were followed from the formation of the quinoxaline products at 345 nm. (B) Fluorimetric detection of the reaction between MitoG and methylglyoxal (40 μM each), and between MitoG and glyoxal (200 μM each) was observed by monitoring the quinoxaline products at excitation and emission wavelengths of 344 and 433 nm, respectively. The changes in fluorescence caused by MQE and QE formation was quantified from calibration curves constructed by plotting fluorescence (excitation and emission wavelengths of 344 and 433 nm, respectively) against known amounts of either quinoxaline and were linear up to at least 20 μM.
TPP-conjugated compounds were made up as 10 mM stock solutions in DMSO, flushed with argon and stored as aliquots at −20° C. […] The molar extinction coefficients were calculated from the absorbance at maximal absorption (λmax) for the compounds for solutions of known concentration. Reaction rates between MitoG and 1,2-dicarbonyls were determined from the initial linear slope over the first 30 s at the λmax for the formation of the relevant quinoxaline. Fluorescence spectra were obtained in 2.5 ml KCl buffer using a Shimadzu RF-301PC fluorimeter with slit widths of 3 nm. […]

BAECs = test: Cell survival, MTS assay, BAECs; type: cell-based, bovine; settings: BAEC, 24 h
Method: (A, B) RLM respiring on glutamate/malate at 37° C. were incubated with various concentrations of MitoG for 7 min in an oxygen electrode to measure coupled respiration (A) before ADP was added to measure phosphorylating respiration (B). Data are the percentage of the respiration rates of untreated controls (dashed lines). (C and D) C2C12 cells (C) or BAECs [Bovine Aortic Endothelial Cells; Cell Applications Inc, San Diego, Calif.] (D) were incubated with MitoG for 24 h and cell survival was then determined using the MTS assay. Data are expressed as a percentage of the untreated controls (dashed line). (E-H) BAECs were incubated with MitoG for 2 h at 37° C. and the cellular oxygen consumption rate (OCR) after the sequential additions of oligomycin, FCCP and antimycin A/rotenone were then measured using a Seahorse XF24 analyser. (E) OCR due to ATP synthesis, (F) OCR due to proton leak, (G) reserve capacity and (H) non-mitochondrial oxygen consumption. Results are means±S.E. of three independent experiments. *, P<0.05 or **, P<0.01 relative to untreated controls.
To assess cell viability, C2C12 cells or BAECs were seeded at a density of 10,000 cells/well and 40,000 cells/well, respectively, in 96-well plates. […] After 2 h absorbance was read at 490 nm in a plate reader (SpectraMax Plus 384, Molecular Devices). […]

[2] = test system: horse-radish peroxidase (HRP); test: Stability under oxidative conditions (HRP and hydrogen peroxide); type: physicochemical
Method: MitoG 100 μM was mixed with 0.07 U horse-radish peroxidase (HRP) in a 1 ml curvette containing 100 mM potassium phosphate buffer (pH 6.0) and 0.5% (w/v) hydrogen peroxide at room temperature. A reference curvette and a blank were similarly set up with DMSO in place of MitoG. Scanning UV/Vis spectra were then taken at 1 min, 5 min and 10 min after mixing using a spectrophotometer (Shimadzu UV-2501PC). Spectra of MitoG-containing mixtures were compared against the spectrum of the blank. To determine if any reaction observed could be prevented by the HRP inhibitor, NaN3 [58, 59] separate incubations were set up as above but containing 8 mg/ml NaN3 as well.
Oxidative degradation of o-phenylenediamine is known to result in the production of methylglyoxal and glyoxal. This oxidative degradation can lead to an overestimation of dicarbonyl levels in samples if o-phenylenediamine is used to try to quantify methylglyoxal and glyoxal levels in biological samples. To determine if MitoG could undergo similar oxidative degradation to methylglyoxal and glyoxal, MitoG was incubated with HRP and hydrogen peroxide in vitro. Scanning UV/Vis spectra of the reaction mixture were taken before and after the addition of HRP. HRP was used as a representative peroxidase that could catalyse an oxidative degradation in a cellular environment. […] These changes are prevented by the HRP inhibitor, NaN3.

[3] = Reaction with reactive aldehydes followed by RP-HPLC; settings: RP-HPLC analysis, data not shown
Text: MitoG reacted with methylglyoxal and glyoxal to form products with identical absorption, fluorescence and RP-HPLC properties (FIGS. 3E, F, G & H) to those of independently synthesized and characterized MQE or QE (FIGS. 3B, C & D). […] Thus the reaction of MitoG with these aldehydes is not diagnostically useful, in contrast to that with 1,2-dicarbonyls, which generates stable, dominant products.

Nc1ccc(OCCCCCC[P+](c2ccccc2)(c2ccccc2)c2ccccc2)cc1N [MitoG, (6-(3,4-Diaminophenoxy)hexyl)triphenylphosphonium chloride]
rate constant for reaction with glyoxal [1]: 0.6 ± 0.3 M⁻¹ s⁻¹ | concentration above which cell viability decreased (BAECs): > 50 µM | degradation in the presence of HRP ([2]; 100 μM, 0.07 U HRP, 0.5% hydrogen peroxide, pH 6.0, room temperature): degrades in the presence of HRP | oxidative degradation to methylglyoxal and glyoxal ([2]; HRP and hydrogen peroxide, product absorbs at 430 nm): does not undergo oxidative degradation to form methylglyoxal and glyoxal | reaction with HNE or acrolein [3]: did react, a number of products were formed some of which were unstable

From patent US9963474B2, “Mitochondria-targeted dicarbonyl sequestering compounds” (MEDICAL RESEARCH COUNCIL, priority 2013, dated 2018)
